How the values were obtained:
Colo-205 = assay: Caspase-Glo 3/7 assay; assay type: cell-based; conditions: Homo sapiens
Source text: (§1) Identification of tumor types that are the most sensitive to the KSP inhibitors of the present invention can be accomplished using an unbiased approach that uses several cell-based assays. The assays chosen were as follows: • CellTiter-Glo®. This is an assay designed to measure ATP concentration in a cell culture, and can be correlated to cell number. Briefly CellTiter-Glo® (Promega Corporation) is a homogeneous method using the single CellTiter-Glo® reagent to detect ATP wherein ATP in the assay drives the activity of a thermostable luciferase to create a luminescent signal which can then be measured and correlated with the number of viable cells. Briefly, for adherent cells, 1,000 to 5,000 cells/well were plated in 96-well plates (100 μl/well) and let to adhere for 24 hours before being treated with drug. For non-adherent cells, 1,000 to 10,000 cells/well were plated in 96-well plates (100 μl/well) and immediately treated with drug. Drug dilutions were prepared in DMSO at 1000 times the final concentration. These dilutions were then diluted 1/100 in growth media before being added to the cells (11 μl/well) to achieve the desired final concentration. After 48 h in a 37° C. tissue culture incubator, the plates were processed for the CellTiter-Glo®assay according to the manufacturer's instructions. Protocol for a 72 hour cell proliferation assay: The 72 hour assay was performed the same way as the 48 hour assay except for the following modifications: For adherent cells, 500 to 5,000 cells/well were plated in 96-well plates (90 μl/well cell growth media) and left to adhere for 24 hours before being treated with drug. For non-adherent cells, 1,000 to 10,000 cells/well were plated in 96-well plates (90 μl/well cell growth media) and immediately treated with drug. Data values presented represent the concentration of test compound required for a 50% reduction in growth. • LDH release. The Cytotoxicity Detection KitPLUS (LDH) assay (Roche Diagnostics, Manheim, Germany) measures the amount of LDH released in the media by dying cells; LDH catalyzes the conversion of lactate into pyruvate. The enzymatic reaction is coupled to a chemical reaction that uses a tetrazolium salt to form a formazan that is red and can be detected by its absorbance at 490 nm. This assay measures the amount of cell death after drug treatment. Cells were plated at 10,000 cells/well in 96-well plates (100 μl/well). Adherent cells were let to adhere for 24 hours before being treated with drug, whereas non-adherent cells were immediately treated with drug. Drug dilutions were prepared in DMSO at 1000 times the final concentration. These dilutions were then diluted 1/100 in growth media before being added to the cells (11 μl/well) to achieve the desired final concentration. After 48 h in a 37° C. tissue culture incubator, the plates were processed for the Cytotoxicity Detection KitPLUS (LDH) assay according to the manufacturer's instructions. The media only values were subtracted from all the data points before analysis. Data values presented correspond to the compound concentration wherein LDH output is at half maximal level. • Caspase-Glo® 3/7. The Caspase-Glo® 3/7 Assay (Promega Corporation) is a homogeneous luminescent assay that measures caspase-3/7 activities. The assay provides a proluminescent caspase-3/7 DEVD-aminoluciferin substrate and a thermostable luciferase in a reagent optimized for caspase-3/7 activity, luciferase activity and cell lysis. Adding the single Caspase-Glo® 3/7 Reagent results in cell lysis, followed by caspase cleavage of the substrate. This liberates free aminoluciferin, which is consumed by the luciferase, generating a luminescent signal. The signal is proportional to caspase-3/7 activity. Data values presented correspond to the compound concentration wherein caspase 3/7 activity is at half maximal level.

HCT-116 = assay: Caspase-Glo 3/7 assay; assay type: cell-based; conditions: Homo sapiens
Source text: as §1

MV4; 11 = assay: Caspase-Glo 3/7 assay; assay type: cell-based; conditions: Homo sapiens
Source text: as §1

[1] = KMS-11-luc disseminated disease model, host response; assay type: in vivo, mouse; conditions: q4d × 3, i.v.
Description: Experiments were performed using immunodeficient SCID-Beige female mice approximately 7-8 weeks old (Charles River Laboratories, Wilmington, Mass.). […] Routine animal care and assurance of welfare were as described above. […] Doses were adjusted to each animal's body weight. […] Approximately 10 minutes prior to imaging, mice were injected i.p. with 150 mg/kg luciferin (Xenogen Corporation, Alameda, Calif.), followed by anesthetization with isoflurane. Photon emission was measured using a charge coupled device camera in the IVIS imaging system (Xenogen Corporation). Briefly, a gray-scale image of the mice was captured, followed by an overlay of a bioluminescence map representing the spatial distribution of photons detected from cleaved luciferin in the cancer cells expressing luciferase. Signal intensity was quantified using a customized version of the IGOR Pro version 4.09A Software (WaveMetrics, Inc., Lake Oswego, Oreg.) called Living Image version 2.50.2 (Xenogen). The sum of all detected photon counts from the right+left legs were determined. Bioluminescence of cancer cells in the animals was measured by imaging on designated days until the first mice developed hind limb paralysis due to disease burden, the main end point for when to humanely euthanize mice. The day of euthanasia for each mouse was recorded, and the remaining percentage of mice surviving was plotted over time (Kaplan-Meier survival analysis). P values were calculated using the log-rank test (GraphPad Prism 4.0 software) to assess differences between treated and control groups (p<0.05 was considered significant). […] Data analysis was as described above.

## CC(C)(C)[C@H](c1nc(-c2cc(F)ccc2F)cn1Cc1ccccc1)N(CC[C@H](N)CF)C(=O)CO [Compound IIa]
Colo-205; Colo-205, 24 h
  EC50: 0.13 nM
Colo-205; Colo-205, 48 h
  EC50: 0.21 nM
Colo-205; Colo-205, 72 h
  EC50: 0.19 nM
HCT-116; HCT-116, 24 h
  EC50: 0.12 nM
HCT-116; HCT-116, 48 h
  EC50: 0.09 nM
MV4; 11; MV4;11, 24 h
  EC50: 0.02 nM
MV4; 11; MV4;11, 48 h
  EC50: 0.03 nM
[1]; 0.25 mg/kg, D14
  Max. Δ body weight (Day): 2.1 ± 1.23 g
  Max. Δ body weight (Day) (%): 5.0 ± 2.0%
[1]; 0.5 mg/kg, D14
  Max. Δ body weight (Day): 2.5 ± 0.23 g
  Max. Δ body weight (Day) (%): 6.7 ± 1.1%
[1]; 1 mg/kg, D13
  Max. Δ body weight (Day): -0.74 ± 0.75 g
  Max. Δ body weight (Day) (%): −3.3 ± 4.0%

— patent US8252832B2, “Kinesin inhibitors as cancer therapeutics” (Novartis AG, priority 2007, dated 2012)
